Usually Ki stands for a dissociation constant, usually derived from enzyme kinetics or from competition with a known ligand. The ED50 is the midpoint of the dose-response relation. In general, EC50 refers to the concentration needed to bring the measured effect to its halfway point.

Here are results for two molecules from ChEMBL document CHEMBL1128795, “N-(Quinuclidin-3-yl)-2-(1-methyl-1H-indol-3-yl)-2-oxo-acetamide: a high affinity 5-HT3 receptor partial agonist” (Bioorg Med Chem Lett, 1995).

The target in experiment [1] is 5-hydroxytryptamine receptor 1D (Homo sapiens, UniProt P28221). Description: Binding affinity against 5-Hydroxytryptamine 1D receptor.
Experiment [2] addresses T1, Alpha-2B adrenergic receptor (Homo sapiens, UniProt P18089).
T1 sequence (P18089 whole entry): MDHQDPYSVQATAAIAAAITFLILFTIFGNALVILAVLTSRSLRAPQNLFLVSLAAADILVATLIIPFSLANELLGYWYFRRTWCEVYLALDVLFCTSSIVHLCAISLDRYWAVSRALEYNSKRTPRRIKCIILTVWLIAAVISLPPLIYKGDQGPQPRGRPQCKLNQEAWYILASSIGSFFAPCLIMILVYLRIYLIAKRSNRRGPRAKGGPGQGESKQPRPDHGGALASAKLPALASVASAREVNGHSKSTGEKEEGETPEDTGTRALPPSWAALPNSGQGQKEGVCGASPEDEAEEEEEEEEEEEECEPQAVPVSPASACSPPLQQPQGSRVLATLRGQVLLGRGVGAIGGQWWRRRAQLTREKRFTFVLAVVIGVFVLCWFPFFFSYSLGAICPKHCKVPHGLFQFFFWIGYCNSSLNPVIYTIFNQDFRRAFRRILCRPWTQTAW
Description: Binding affinity against Alpha-2B adrenergic receptor.

In experiment [3] the target is Beta-1 adrenergic receptor (Homo sapiens, UniProt P08588). The experiment in a line: Binding affinity against Beta-1 adrenergic receptor.
In experiment [4] the target is T2, Alpha-2A adrenergic receptor (Homo sapiens, UniProt P08913).
T2 sequence (P08913 whole entry): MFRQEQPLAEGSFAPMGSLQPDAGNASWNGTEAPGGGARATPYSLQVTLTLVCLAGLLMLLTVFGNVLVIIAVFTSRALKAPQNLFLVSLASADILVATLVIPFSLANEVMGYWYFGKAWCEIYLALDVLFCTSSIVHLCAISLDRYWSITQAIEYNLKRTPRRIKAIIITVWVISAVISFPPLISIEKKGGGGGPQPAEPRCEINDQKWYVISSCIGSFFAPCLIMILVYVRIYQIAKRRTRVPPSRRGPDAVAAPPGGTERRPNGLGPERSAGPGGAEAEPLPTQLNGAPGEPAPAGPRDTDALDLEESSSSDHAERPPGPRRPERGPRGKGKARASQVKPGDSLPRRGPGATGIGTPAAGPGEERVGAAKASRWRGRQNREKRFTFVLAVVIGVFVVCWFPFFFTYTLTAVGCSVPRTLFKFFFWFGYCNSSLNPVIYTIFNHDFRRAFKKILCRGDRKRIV
The experiment in a line: Binding affinity against Alpha-2A adrenergic receptor.

Experiment [5] concerns the target D(2) dopamine receptor (Homo sapiens, UniProt P14416). Description: Binding affinity against Dopamine D2 receptor.
Experiment [6] addresses D(1A) dopamine receptor (Homo sapiens, UniProt P21728). The experiment in a line: Binding affinity against Dopamine D1 receptor.
In experiment [7] the target is 5-hydroxytryptamine receptor 2A (Homo sapiens, UniProt P28223). Description: Binding affinity against 5-Hydroxytryptamine 2A receptor.
Experiment [8] addresses T3, Alpha-1A adrenergic receptor (Homo sapiens, UniProt P35348).
T3 sequence (P35348 whole entry): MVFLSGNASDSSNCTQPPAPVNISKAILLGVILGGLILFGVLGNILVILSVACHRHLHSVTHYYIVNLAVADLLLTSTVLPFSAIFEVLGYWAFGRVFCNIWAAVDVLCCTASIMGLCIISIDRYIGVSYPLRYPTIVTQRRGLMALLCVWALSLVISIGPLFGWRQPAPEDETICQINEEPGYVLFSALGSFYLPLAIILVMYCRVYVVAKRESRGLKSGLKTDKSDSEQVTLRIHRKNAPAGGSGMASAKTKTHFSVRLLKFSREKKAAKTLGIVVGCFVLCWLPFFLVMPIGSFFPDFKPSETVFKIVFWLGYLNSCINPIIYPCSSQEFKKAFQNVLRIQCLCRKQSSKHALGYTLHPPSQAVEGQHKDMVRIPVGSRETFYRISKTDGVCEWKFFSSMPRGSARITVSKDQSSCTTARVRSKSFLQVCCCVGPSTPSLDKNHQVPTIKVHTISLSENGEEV
The experiment in a line: Binding affinity against Alpha-1A adrenergic receptor.

Experiment [9] concerns the target T4, Serotonin 3 (5-HT3) receptor (Rattus norvegicus) (UniProt P35563+Q9JJ16). Description: Agonist activity against 2-methyl-5-HT induced bradycardia (von Bezold-Jarisch (B-J) reflex) in anesthetized rats. The class given is functional.
Experiment [10] addresses T4, Serotonin 3 (5-HT3) receptor (Rattus norvegicus). The experiment in a line: Tested for % decrease in heart rate relative to pre-dose control against 2-methyl-5-HT induced bradycardia (von Bezold-Jarisch (B-J) reflex) in anesthetized rats. The class given is functional. On the set-up: scale not given: the % may be the effect or the level left.
The species entered for experiment [11] is Rattus norvegicus. The experiment in a line: Tested for effective concentration against 5-HT mediated depolarization of isolated rat vagus nerve. The format is functional.
The target in experiment [12] is T5, 5-hydroxytryptamine receptor 1A (Mus musculus, UniProt Q64264).
T5 sequence (Q64264 whole entry): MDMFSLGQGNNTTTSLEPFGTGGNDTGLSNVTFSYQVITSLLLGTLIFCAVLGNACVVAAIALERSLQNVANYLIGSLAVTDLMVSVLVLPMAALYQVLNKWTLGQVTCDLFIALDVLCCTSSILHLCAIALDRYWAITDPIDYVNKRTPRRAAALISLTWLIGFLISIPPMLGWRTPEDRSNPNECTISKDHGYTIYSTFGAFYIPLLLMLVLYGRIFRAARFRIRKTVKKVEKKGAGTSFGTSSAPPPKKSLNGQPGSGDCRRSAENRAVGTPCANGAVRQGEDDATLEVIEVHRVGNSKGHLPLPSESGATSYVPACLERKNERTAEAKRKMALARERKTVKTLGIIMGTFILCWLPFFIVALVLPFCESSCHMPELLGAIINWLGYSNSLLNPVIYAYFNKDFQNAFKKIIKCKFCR
The experiment in a line: Binding affinity against 5-hydroxytryptamine 1A receptor.

Experiment [13] concerns the target Muscarinic acetylcholine receptor M3 (Homo sapiens, UniProt P20309). Description: Binding affinity against Muscarinic M3 receptor.
In experiment [14] the target is Beta-2 adrenergic receptor (Homo sapiens, UniProt P07550). Description: Binding affinity against Beta-2 adrenergic receptor.
Experiment [15] deals with T6, Alpha-1B adrenergic receptor (Homo sapiens, UniProt P35368).
T6 sequence (P35368 whole entry): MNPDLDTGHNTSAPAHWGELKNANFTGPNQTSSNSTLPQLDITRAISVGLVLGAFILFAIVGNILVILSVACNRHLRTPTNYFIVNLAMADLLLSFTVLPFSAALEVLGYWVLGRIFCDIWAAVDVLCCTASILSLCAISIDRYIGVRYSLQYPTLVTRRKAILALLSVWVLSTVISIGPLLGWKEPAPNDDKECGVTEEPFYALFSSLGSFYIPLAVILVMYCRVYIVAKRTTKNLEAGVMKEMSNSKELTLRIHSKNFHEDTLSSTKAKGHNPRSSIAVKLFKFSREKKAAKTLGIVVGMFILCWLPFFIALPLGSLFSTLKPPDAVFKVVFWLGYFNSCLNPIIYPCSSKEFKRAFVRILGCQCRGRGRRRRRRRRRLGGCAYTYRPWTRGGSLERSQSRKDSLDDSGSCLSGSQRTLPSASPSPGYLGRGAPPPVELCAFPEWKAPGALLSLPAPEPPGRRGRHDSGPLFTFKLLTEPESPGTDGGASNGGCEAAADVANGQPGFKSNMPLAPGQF
Description: Binding affinity against Adrenogenic Alpha-1B receptor.

Sequence of D(1A) dopamine receptor (P21728 whole entry): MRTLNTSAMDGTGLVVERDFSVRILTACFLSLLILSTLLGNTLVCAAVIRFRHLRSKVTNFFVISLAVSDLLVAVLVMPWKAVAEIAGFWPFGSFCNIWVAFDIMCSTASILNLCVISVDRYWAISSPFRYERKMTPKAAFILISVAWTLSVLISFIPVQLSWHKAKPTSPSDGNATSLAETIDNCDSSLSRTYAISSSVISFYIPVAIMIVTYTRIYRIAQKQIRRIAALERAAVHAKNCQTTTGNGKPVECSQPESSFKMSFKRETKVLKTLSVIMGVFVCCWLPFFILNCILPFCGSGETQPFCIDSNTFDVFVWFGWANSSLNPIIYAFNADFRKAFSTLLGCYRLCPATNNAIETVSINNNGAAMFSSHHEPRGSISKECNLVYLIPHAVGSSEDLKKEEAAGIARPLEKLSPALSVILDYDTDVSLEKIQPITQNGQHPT
Sequence of Muscarinic acetylcholine receptor M3 (P20309 whole entry): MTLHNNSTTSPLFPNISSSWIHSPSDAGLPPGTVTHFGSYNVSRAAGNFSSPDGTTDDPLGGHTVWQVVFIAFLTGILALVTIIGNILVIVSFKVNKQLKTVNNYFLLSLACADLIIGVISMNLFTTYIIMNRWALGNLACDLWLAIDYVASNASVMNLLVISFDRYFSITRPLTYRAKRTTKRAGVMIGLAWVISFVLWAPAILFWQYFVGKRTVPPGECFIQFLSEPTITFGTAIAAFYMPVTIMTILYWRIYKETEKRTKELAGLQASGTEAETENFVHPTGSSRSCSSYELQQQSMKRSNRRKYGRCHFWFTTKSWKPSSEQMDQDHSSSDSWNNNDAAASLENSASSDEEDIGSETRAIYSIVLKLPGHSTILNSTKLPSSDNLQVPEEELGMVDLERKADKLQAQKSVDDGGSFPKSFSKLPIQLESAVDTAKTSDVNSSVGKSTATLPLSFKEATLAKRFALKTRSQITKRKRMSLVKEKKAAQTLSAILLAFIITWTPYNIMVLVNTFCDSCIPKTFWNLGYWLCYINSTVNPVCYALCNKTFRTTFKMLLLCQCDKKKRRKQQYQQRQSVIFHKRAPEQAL
Sequence of Beta-1 adrenergic receptor (P08588 whole entry): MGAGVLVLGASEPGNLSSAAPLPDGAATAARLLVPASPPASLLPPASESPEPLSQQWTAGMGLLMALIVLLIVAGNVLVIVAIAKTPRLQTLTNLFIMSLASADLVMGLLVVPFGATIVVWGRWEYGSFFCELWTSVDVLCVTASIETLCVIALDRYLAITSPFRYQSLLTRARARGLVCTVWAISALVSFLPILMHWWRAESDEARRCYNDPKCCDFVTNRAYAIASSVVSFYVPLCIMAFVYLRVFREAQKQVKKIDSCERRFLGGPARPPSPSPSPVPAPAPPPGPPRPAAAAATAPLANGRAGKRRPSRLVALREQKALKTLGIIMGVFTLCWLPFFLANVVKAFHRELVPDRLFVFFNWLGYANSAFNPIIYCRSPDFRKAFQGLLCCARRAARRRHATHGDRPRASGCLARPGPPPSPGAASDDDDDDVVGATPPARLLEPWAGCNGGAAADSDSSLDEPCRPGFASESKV
Sequence of 5-hydroxytryptamine receptor 1D (P28221 whole entry): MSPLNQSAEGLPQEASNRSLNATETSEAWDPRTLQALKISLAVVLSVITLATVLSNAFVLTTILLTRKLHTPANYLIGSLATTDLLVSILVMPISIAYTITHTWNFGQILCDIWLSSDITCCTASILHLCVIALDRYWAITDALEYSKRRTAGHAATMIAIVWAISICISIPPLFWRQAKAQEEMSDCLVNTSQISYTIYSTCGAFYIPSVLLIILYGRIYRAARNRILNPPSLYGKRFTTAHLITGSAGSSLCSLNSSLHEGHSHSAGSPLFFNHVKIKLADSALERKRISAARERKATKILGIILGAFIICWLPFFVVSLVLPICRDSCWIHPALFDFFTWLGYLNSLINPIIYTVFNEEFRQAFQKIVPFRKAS
Sequence of D(2) dopamine receptor (P14416 whole entry): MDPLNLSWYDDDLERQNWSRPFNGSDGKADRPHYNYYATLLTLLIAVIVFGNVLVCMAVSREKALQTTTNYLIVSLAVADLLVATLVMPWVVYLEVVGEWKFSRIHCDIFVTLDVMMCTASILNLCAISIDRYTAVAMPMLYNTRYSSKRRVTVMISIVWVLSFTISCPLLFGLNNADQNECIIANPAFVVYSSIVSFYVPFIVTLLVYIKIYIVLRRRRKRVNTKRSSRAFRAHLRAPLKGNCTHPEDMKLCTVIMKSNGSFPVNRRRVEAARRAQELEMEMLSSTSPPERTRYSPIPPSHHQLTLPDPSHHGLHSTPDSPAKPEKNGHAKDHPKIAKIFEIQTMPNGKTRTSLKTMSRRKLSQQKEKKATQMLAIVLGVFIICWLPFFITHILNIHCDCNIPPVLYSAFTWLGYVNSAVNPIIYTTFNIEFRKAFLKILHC
Sequence of Beta-2 adrenergic receptor (P07550 whole entry): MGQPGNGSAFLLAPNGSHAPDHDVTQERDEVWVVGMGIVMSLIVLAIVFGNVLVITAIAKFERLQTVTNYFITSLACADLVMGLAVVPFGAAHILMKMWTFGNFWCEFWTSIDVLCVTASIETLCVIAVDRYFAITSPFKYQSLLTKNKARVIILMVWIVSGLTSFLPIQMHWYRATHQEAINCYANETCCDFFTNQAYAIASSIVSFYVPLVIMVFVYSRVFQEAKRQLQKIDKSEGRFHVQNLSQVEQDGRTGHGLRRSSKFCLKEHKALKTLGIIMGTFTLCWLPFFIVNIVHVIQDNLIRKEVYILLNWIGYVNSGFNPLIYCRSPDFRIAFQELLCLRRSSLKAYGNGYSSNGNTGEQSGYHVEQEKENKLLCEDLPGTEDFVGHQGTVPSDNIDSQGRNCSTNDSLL
Sequence of 5-hydroxytryptamine receptor 2A (P28223 whole entry): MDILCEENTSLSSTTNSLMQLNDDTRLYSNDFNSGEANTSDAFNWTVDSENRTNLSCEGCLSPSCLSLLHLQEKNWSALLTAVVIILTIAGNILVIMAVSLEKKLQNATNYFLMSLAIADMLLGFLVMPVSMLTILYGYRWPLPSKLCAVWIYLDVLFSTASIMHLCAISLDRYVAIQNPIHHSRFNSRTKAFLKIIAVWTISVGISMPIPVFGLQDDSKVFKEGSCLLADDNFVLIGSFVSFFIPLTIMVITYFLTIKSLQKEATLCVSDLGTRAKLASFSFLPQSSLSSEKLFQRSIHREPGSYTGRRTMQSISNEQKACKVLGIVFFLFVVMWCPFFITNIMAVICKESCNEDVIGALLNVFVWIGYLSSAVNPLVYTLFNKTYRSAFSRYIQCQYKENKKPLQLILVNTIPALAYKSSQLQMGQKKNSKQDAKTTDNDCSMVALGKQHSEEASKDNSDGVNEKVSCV

On to `Cn1cc(C(=O)C(=O)N[C@@H]2CN3CCC2CC3)c2ccccc21`, for which the Ki was over 100 µM in experiment [1]; 25.1 µM in experiment [2]; over 100 µM in [3]; 31.6 µM in experiment [4]; over 100 µM in [5]; over 100 µM in experiment [6]. Moreover, the Ki is 25.1 µM in experiment [7]; 25.1 µM in experiment [8]; over 100 µM in [12]; 31.6 µM in [13]; over 100 µM in experiment [14]; 15.8 µM in experiment [15]. The same molecule came in with an ED50 in experiment [9] of 8.5 µg/kg. Further, in experiment [10], the Control was determined as 33%. This molecule had an EC50 in experiment [11] of 2.14 µM.
Turning to `Cn1cc(C(=O)C(=O)N[C@H]2CN3CCC2CC3)c2ccccc21`, the Ki in [1] is 39.8 µM; in experiment [2], 3.16 µM; in [3], over 10 µM; in experiment [4], 7.94 µM; in experiment [5], over 100 µM; in experiment [6], over 100 µM. Besides, the Ki was 12.6 µM in experiment [7]; over 10 µM in experiment [8]; over 100 µM in experiment [12]; 50.1 µM in experiment [13]; over 10 µM in experiment [14]; over 10 µM in experiment [15]. Besides, the 50% effective dose (ED50) in experiment [9] turned out to be 0.6 µg/kg. In experiment [10], the Control came to 24%. Besides, in [11], the EC50 was 0.0355 µM.
